Experimental data: patent US20260070945A1, “MACROCYCLIC IMMUNOMODULATORS” (Bristol-Myers Squibb Company, priority 2022, published 2026)
Where two headings read alike, the source gives them in different places. Where a SMILES comes first, the peptide text is derived from it. Bridges are numbered along the chain shown (N, C = ends). [ ]: non-standard residue; d: D form. The star is where a group is joined. ξ: configuration not given here. Phe(3-CF3) = N[C@@H](Cc1cccc(C(F)(F)F)c1)C(=O)O; Phe(4-COOH) = N[C@@H](Cc1ccc(C(=O)O)cc1)C(=O)O; Bip = N[C@@H](Cc1ccc(-c2ccccc2)cc1)C(=O)O; NH(CH2)12COOH = O=C(O)CCCCCCCCCCCCN*; Val(3-OH) = CC(C)(O)[C@H](N)C(=O)O; 4Pal = N[C@@H](Cc1ccncc1)C(=O)O; Cha = N[C@@H](CC1CCCCC1)C(=O)O; Ile(3ξ) = CCC(C)[C@H](N)C(=O)O; Thr(3ξ) = CC(O)[C@H](N)C(=O)O; Carboxymethyl = O=C(O)C*; NMeA = CN[C@@H](C)C(=O)O; Orn = NCCC[C@H](N)C(=O)O; Aun = NCCCCCCCCCCC(=O)O; Dab = NCC[C@H](N)C(=O)O; Dap = NC[C@H](N)C(=O)O; AEEA = NCCOCCOCC(=O)O

Molecular target: T1, PD-1/PD-L1 interaction (PE-labeled human PD-L1-Ig binding to Jurkat cell line over-expressing human PD-1) (Homo sapiens, UniProt Q15116)
T1 construct: expressed in transfected cells; host or cells: Jurkat
Experiment: Jurkat-PD-1 Cell Binding High-Content Screening Assay (CBA)
Description: Example 2: Jurkat-PD-1 Cell Binding High-Content Screening Assay (CBA)
Phycoerythrin (PE) was covalently linked to the Ig epitope tag of human PD-L1-Ig and fluorescently-labeled PD-L1-Ig was used for binding studies with a Jurkat cell line over-expressing human PD-1 (Jurkat-PD-1). Briefly, 8×10^3 Jurkat-hPD-1 cells were seeded into 384 well plates in 20 μl of DMEM supplemented with 10% fetal calf serum. 100 nl of compound was added to cells followed by incubation at 37° C. for 2 hours. Then, 5 μl of PE-labeled PD-L1-Ig (20 nM final), diluted in DMEM supplemented with 10% fetal calf serum. After 1 hour incubation, cells were fixed with […] in dPBS containing 10 μg/ml Hoechst 33342 and then washed 3× in 100 μl dPBS. Data was collected and processed using a Cell Insight NXT High Content Imager and associated software.

[1] = PE-labeled PD-L1-Ig 20 nM final, Jurkat-hPD-1 cells; read-out: Jurkat HPD1 PDL1 IC50
[2] = Jurkat-hPD-1 cells, PE-labeled PD-L1-Ig 20 nM final; read-out: Jurkat HPD1 PDL1 IC50

T1 sequence (Q15116 25-288): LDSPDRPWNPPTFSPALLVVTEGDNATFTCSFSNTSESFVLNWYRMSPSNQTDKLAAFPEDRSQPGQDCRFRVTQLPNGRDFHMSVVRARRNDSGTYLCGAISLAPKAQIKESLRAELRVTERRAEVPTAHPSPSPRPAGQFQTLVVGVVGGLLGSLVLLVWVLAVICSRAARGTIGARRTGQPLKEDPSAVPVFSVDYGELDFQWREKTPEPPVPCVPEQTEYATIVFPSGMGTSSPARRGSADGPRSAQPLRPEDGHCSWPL

Compound | IC50 [1] | IC50 [2]
CC(=O)NCCCC[C@@H]1NC(=O)[C@H](C(C)(C)O)NC(=O)[C@H](CC2CCCCC2)NC(=O)[C@H](CCN)NC(=O)[C@@H](CC(C)C)NC(=O)[C@H](C)N(C)C(=O)[C@H](CCC(N)=O)NC(=O)[C@H](Cc2ccc(-c3ccccc3)cc2)NC(=O)[C@H](Cc2ccc(C(=O)O)cc2)NC(=O)[C@H](Cc2cccc(C(F)(F)F)c2)NC(=O)[C@H](CC(=O)O)NC(=O)[C@H](Cc2ccc(OCC(=O)O)cc2)NC(=O)[C@H](Cc2ccc(OCC(=O)O)cc2)NC(=O)CSC[C@@H](C(=O)N[C@@H](CCN)C(=O)NCCCCCCCCCCCCC(=O)O)NC1=O [Example 2565] ({CH2CO}-Y(Carboxymethyl)Y(Carboxymethyl)D[Phe(3-CF3)][Phe(4-COOH)][Bip]Q[NMeA][dL][Dab][Cha][Val(3-OH)]K(Ac)C[Dab]-{NH(CH2)12COOH}; thioether N-14) | 3.3 nM | –
CCC(C)[C@@H]1NC(=O)[C@H](Cc2ccc(-c3ccccc3)cc2)NC(=O)[C@H](C(C)C)NC(=O)[C@H](Cc2c[nH]c3ccccc23)NC(=O)[C@H](CC(=O)O)NC(=O)[C@H](Cc2ccncc2)NC(=O)[C@H](Cc2ccc(OCC(=O)O)cc2)NC(=O)CSC[C@@H](C(=O)N[C@@H](CCCN)C(=O)NCCOCCOCC(=O)NCCCCCCCCCCC(=O)O)NC(=O)[C@H](C(C)O)NC(=O)[C@H](C(C)C)NC(=O)[C@H](CC2CCCCC2)NC(=O)[C@H](CCN)NC(=O)[C@@H](CC(C)C)NC(=O)[C@H](C)N(C)C1=O (stereo partly drawn) [Example 2106] ({CH2CO}-Y(Carboxymethyl)[4Pal]DWV[Bip][Ile(3ξ)][NMeA][dL][Dab][Cha]V[Thr(3ξ)]C[Orn][AEEA][Aun]-OH; thioether N-14) | – | 8 nM
CC(C)C[C@H]1NC(=O)[C@H](C)N(C)C(=O)[C@H](Cc2ccc(OCC(=O)O)cc2)NC(=O)[C@H](Cc2ccc(-c3ccccc3)cc2)NC(=O)[C@H](Cc2ccc(OCC(=O)O)cc2)NC(=O)[C@H](Cc2c[nH]c3ccccc23)NC(=O)[C@H](CC(=O)O)NC(=O)[C@H](Cc2ccc(OCC(=O)O)cc2)NC(=O)[C@H]([C@@H](C)O)NC(=O)CSC[C@@H](C(=O)N[C@@H](CCCN)C(=O)NCCOCCOCC(=O)NCCCCCCCCCCC(=O)O)NC(=O)[C@H](CCC(=O)O)NC(=O)[C@H](C(C)C)NC(=O)[C@H](CC2CCCCC2)NC(=O)[C@H](CCN)NC1=O [Example 1396] ({CH2CO}-TY(Carboxymethyl)DWY(Carboxymethyl)[Bip]Y(Carboxymethyl)[NMeA][dL][Dab][Cha]VEC[Orn][AEEA][Aun]-OH; thioether N-14) | – | 304 nM
CCC(C)[C@@H]1NC(=O)[C@H](Cc2ccc(-c3ccccc3)cc2)NC(=O)[C@H](CC(C)C)NC(=O)[C@H](Cc2c[nH]c3ccccc23)NC(=O)[C@H](CC(=O)O)NC(=O)[C@H](Cc2ccc(C(=O)O)cc2)NC(=O)[C@H](Cc2ccc(OCC(=O)O)cc2)NC(=O)CSC[C@@H](C(=O)N[C@@H](CC(N)=O)C(=O)NCCOCCOCC(=O)N[C@@H](CN)C(=O)NCCCCCCCCCCC(=O)O)NC(=O)[C@H](CO)NC(=O)[C@H](C(C)C)NC(=O)[C@H](CC2CCCCC2)NC(=O)[C@H](CCN)NC(=O)[C@@H](CC(C)C)NC(=O)[C@H](C)N(C)C1=O (stereo partly drawn) [Example 2075] ({CH2CO}-Y(Carboxymethyl)[Phe(4-COOH)]DWL[Bip][Ile(3ξ)][NMeA][dL][Dab][Cha]VSCN[AEEA][Dap][Aun]-OH; thioether N-14) | – | 15.5 nM
CC(C)C[C@H]1NC(=O)[C@H](C)N(C)C(=O)[C@H](Cc2ccc(C(=O)O)cc2)NC(=O)[C@H](Cc2ccc(-c3ccccc3)cc2)NC(=O)[C@H](Cc2ccc(C(=O)O)cc2)NC(=O)[C@H](Cc2cccc(C(F)(F)F)c2)NC(=O)[C@H](CC(=O)O)NC(=O)[C@H](Cc2ccc(C(=O)O)cc2)NC(=O)[C@H](C(C)O)NC(=O)CSC[C@@H](C(=O)N[C@@H](CCN)C(=O)NCCOCCOCC(=O)NCCOCCOCC(=O)NCCCCCCCCCCCCC(=O)O)NC(=O)[C@H](CC(=O)O)NC(=O)[C@H](C(C)C)NC(=O)[C@H](CC2CCCCC2)NC(=O)[C@H](CCN)NC1=O (stereo partly drawn) [Example 2615] ({CH2CO}-[Thr(3ξ)][Phe(4-COOH)]D[Phe(3-CF3)][Phe(4-COOH)][Bip][Phe(4-COOH)][NMeA][dL][Dab][Cha]VDC[Dab][AEEA][AEEA]-{NH(CH2)12COOH}; thioether N-14) | 64.1 nM | –
